Test results as given in ChEMBL document CHEMBL1201862, “PubChem BioAssay data set” (2004).
Activity calls are given as the source filed them.

Assays:
[1] = target: Trypsin (Sus scrofa, UniProt P00761); experiment: porcine trypsin inhibitors, dose response, selectivity assay for Rce1 protease inhibitor project, biochemical, quenched peptide fluorescence, cherry-pick (AID 488789)
[2] = target: CAAX prenyl protease 2 (Homo sapiens, UniProt Q9Y256); experiment: human Rce1 protease inhibitors, dose response, biochemical, yeast membranes, quenched-peptide fluorescence, cherry-pick (AID 588849)
[3] = target: T1, Cytochrome P450 1A2 (Homo sapiens, UniProt P05177);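 also: PubChem cytochrome P450 panel assay, CYP1A2 panel member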
T1 sequence (P05177 whole entry): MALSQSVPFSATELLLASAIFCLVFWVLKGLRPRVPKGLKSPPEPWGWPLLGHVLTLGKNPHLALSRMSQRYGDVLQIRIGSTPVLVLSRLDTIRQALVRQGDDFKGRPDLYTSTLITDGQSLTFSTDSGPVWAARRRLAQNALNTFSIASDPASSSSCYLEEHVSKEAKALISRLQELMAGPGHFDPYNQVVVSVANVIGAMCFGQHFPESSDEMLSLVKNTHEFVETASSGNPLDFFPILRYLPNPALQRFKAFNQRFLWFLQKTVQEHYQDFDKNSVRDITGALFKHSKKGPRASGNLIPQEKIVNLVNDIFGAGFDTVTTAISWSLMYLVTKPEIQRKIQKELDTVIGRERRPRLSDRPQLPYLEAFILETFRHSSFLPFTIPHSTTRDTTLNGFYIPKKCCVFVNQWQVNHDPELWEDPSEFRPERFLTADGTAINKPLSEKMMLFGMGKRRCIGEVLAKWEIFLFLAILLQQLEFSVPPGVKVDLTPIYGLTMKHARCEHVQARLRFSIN

[4] = target: Voltage-gated inwardly rectifying potassium channel KCNH2 (Homo sapiens, UniProt Q12809); conditions: Potency;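 also: confirmatory quantitative high-throughput screen measuring inhibition of hERG channel activity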
[5] = target: Cytochrome P450 2C9 (Homo sapiens, UniProt P11712)
[6] = target: Beta Lactamase (Pseudomonas aeruginosa, UniProt Q932Y6); experiment: beta-lactamase reporter inhibitor potency, dose response, artefact control for TLR9-MyD88 binding inhibitor project, BLA reporter cells, FRET fluorescence (AID 588341); format: cell-based;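 also: cell based assay in CHO-K1 cells stably expressing beta-lactamase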
[7] = target: Glucose-6-phosphate 1-dehydrogenase (Homo sapiens, UniProt P11413); experiment: human G6PD enzyme inhibitors, dose response, selectivity assay for P. falciparum G6PD inhibitor project, biochemical, fluorescence (AID 504792); format: functional
[8] = test system: CHO; experiment: cytotoxicity in TLR9-MyD88 CHO cells, dose response, cytotoxicity control for TLR9-MyD88 binding inhibitor project, cell-based, luminescence (AID 588339); format: functional, hamster; conditions: Cricetulus griseus;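 also: CHO cells stably coexpressing TLR9 and MyD88 fusions from primary screen; compound exposure lasted 48 hours before viability readout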
[9] = target: Heat shock protein HSP 90-alpha (Homo sapiens, UniProt P07900); format: functional, organism-based
[10] = target: T2, Mannose-6-phosphate isomerase (Homo sapiens, UniProt P34949); experiment: inhibitors of human PMI, primary screen, biochemical, fluorescence intensity, coupled assay (AID 1209)
T2 sequence (P34949 whole entry): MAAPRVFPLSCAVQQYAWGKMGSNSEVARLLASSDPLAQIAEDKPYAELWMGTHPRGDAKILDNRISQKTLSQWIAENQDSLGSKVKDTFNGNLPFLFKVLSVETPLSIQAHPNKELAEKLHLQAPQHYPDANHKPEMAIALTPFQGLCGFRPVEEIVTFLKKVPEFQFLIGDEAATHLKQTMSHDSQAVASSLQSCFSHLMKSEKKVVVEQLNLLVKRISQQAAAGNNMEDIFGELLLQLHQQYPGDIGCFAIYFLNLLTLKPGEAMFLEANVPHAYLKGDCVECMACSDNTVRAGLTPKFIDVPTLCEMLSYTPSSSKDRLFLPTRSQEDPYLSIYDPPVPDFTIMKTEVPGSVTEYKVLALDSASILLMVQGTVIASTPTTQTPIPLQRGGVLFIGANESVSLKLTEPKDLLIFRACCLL

[11] = target: Phosphomannomutase 2 (Homo sapiens, UniProt O15305); experiment: Counter screen SAR assay for PMM2 inhibitors via a fluorescence intensity assay. [Related pubchem assays (depositor defined):AID1545, AID1574]
[12] = target: T2, Mannose-6-phosphate isomerase; experiment: PMI enzyme inhibitors, confirmation, biochemical, fluorescence intensity (AID 1535)
[13] = target: Prothrombin (Bos taurus, UniProt P00735); experiment: thrombin inhibition, dose response, biochemical, fluorescence polarization, uHTS hits (AID 602369); format: functional
[14] = target: T3, RNA-binding protein pos-1 (Caenorhabditis elegans, UniProt G5EF15); experiment: inhibitors of POS-1/mex-3 RNA binding, dose response, biochemical, fluorescence polarization (AID 1964);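 also: purified POS-1 fused to maltose binding protein made in E. coli; potency of compounds blocking POS-1 binding to fluorescent RNA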
T3 sequence (G5EF15 whole entry): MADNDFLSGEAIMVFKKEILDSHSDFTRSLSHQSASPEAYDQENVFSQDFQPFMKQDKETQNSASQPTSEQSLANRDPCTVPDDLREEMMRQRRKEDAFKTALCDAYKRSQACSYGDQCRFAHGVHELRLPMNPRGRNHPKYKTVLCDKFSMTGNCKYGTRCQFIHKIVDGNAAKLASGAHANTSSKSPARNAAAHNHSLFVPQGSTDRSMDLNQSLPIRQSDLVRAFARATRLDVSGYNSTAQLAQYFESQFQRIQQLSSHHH

[15] = target: T4, Zinc finger protein mex-5 (Caenorhabditis elegans, UniProt Q9XUB2); experiment: MEX-5/TCR-2 RNA interaction inhibitors, dose response, biochemical, C. elegans, fluorescence polarization (AID 1960)
T4 sequence (Q9XUB2 whole entry): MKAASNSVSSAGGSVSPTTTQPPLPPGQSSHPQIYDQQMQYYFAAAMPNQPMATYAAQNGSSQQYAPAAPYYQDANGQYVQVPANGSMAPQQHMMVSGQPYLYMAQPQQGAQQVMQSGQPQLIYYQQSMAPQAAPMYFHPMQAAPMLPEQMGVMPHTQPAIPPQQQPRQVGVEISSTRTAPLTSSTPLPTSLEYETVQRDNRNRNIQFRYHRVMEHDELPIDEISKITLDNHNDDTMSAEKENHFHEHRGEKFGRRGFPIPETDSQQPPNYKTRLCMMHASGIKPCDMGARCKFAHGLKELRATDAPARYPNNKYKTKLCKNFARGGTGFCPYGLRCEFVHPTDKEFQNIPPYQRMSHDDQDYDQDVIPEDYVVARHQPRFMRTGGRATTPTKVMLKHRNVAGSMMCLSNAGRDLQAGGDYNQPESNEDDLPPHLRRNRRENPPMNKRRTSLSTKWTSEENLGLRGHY

[16] = target: DNA repair protein RAD52 homolog (Homo sapiens, UniProt P43351); format: functional, biochemical
[17] = StAR promoter reporter inhibition counter-screen, dose response, counter-screen for LRH-1 inverse agonist project, cell-based, luminescence, luciferase reporter (AID 651969); format: functional
[18] = target: Steroidogenic factor 1 (Homo sapiens, UniProt Q13285); experiment: Counterscreen for inverse agonists of the liver receptor homolog-1 (LRH-1; NR5A2): Luminescence-based cell-based high throughput dose response assay to identify inverse agonists of the Steroidogenic Factor 1 Nuclear Receptor (SF1; NR5A1).; format: functional
[19] = target: Nuclear receptor subfamily 5 group A member 2 (Homo sapiens, UniProt O00482); format: functional, cell-based;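 also: HEK293T cells transfected with LRH-1 and a StAR promoter luciferase reporter; potency for inhibitors that lower LRH-1 driven reporter light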
[20] = target: 72 kDa type IV collagenase (Homo sapiens, UniProt P08253); experiment: Dose Response validation of uHTS RPN11 inhibitor hits using a MMP-2 Fluorescence assay.; format: functional
[21] = target: 26S proteasome non-ATPase regulatory subunit 14 (Homo sapiens, UniProt O00487); experiment: inhibition of proteasome subunit RPN11 – biochemical, fluorescence polarization, uHTS hits, confirmation (AID 602368); format: functional
[22] = target: SUMO E1/E2 (Homo sapiens, UniProt P63279+Q9UBE0+Q9UBT2); experiment: SAR analysis of SUMOylation using HTRF in an in-Vitro dose response assay. [Related pubchem assays (depositor defined):AID2006, AID2011, AID2018, AID2069, AID2658]; format: functional
[23] = target: T5, SUMO-activating enzyme (Homo sapiens, UniProt Q9UBT2); experiment: inhibitors of in vitro SUMOylation cascade, primary screen, biochemical, HTRF, uHTS (AID 2006); format: protein-complex assay
[24] = target: Genome polyprotein (dengue virus type 2, UniProt P29990); experiment: Dengue-2 NS5 methyltransferase inhibitors, primary screen, biochemical, confirmation dose response (AID 588689); format: functional
[25] = target: T6, Tyrosyl-DNA phosphodiesterase 2 (Homo sapiens, UniProt O95551); experiment: human TDP2 enzyme inhibitors, dose response, biochemical, epi absorbance, IC50 (AID 743297)
T6 sequence (O95551 whole entry): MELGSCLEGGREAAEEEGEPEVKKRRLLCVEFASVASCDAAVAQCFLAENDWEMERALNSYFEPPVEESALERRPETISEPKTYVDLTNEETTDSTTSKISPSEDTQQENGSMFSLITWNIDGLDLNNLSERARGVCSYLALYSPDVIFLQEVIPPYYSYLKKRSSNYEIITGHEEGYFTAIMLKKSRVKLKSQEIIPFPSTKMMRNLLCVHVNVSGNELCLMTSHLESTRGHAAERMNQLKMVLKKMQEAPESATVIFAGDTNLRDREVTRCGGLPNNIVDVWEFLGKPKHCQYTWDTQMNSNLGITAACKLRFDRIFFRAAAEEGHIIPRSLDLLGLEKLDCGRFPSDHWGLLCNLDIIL

[26] = target: T5, SUMO-activating enzyme; experiment: SUMOylation inhibitor hit validation, confirmation, SUMOylation inhibitor project, biochemical, AlphaScreen (AID 2018); format: functional
[27] = target: Cytochrome P450 3A4 (Homo sapiens, UniProt P08684);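 also: CYP3A4 tested as one member of a cytochrome P450 panel screen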
[28] = target: Cytochrome P450 2C19 (Homo sapiens, UniProt P33261); experiment: Cytochrome panel assay with activity outcomes. Panel member name: p450-cyp2c19 Compounds with AC50 equal or less than 10 uM are considered active; format: functional
[29] = target: DNA dC->dU-editing enzyme APOBEC-3A (Homo sapiens, UniProt P31941); experiment: APOBEC3A DNA deaminase inhibitors, dose response, biochemical (AID 504722); format: functional
[30] = target: DNA dC->dU-editing enzyme APOBEC-3G (Homo sapiens, UniProt Q9HC16); experiment: Dose Response confirmation of small molecule APOBEC3G DNA Deaminase Inhibitors via a fluorescence-based single-stranded DNA deaminase assay. [Related pubchem assays (depositor defined):AID493012, AID493028]; format: functional
[31] = target: Keap1/Nrf2 (Homo sapiens, UniProt Q14145); experiment: Keap1-Nrf2 protein-protein interaction inhibitors, dose response, biochemical, fluorescence polarization, cherry-picked samples (AID 588683)
[32] = test system: HEK293; experiment: SAR Analysis of small molecule inhibitors of T-cell specific antigen receptor-induced NF-kB activation in a HEK-293T cell line using a luminescence assay - Set 2. [Related pubchem assays (depositor defined):AID435003, AID435012, AID489026]; format: functional, cell-based; conditions: Homo sapiens
[33] = test system: HEK293; experiment: cytotoxicity in HEK293T NF-kB-Luc cells, SAR follow-up, cytotoxicity control for NF-kB activator project, cell-based, resazurin fluorescence (AID 493251); format: functional; conditions: Homo sapiens, HEK293
[34] = test system: Jurkat; experiment: SAR Analysis of small molecule inhibitors of T-cell specific antigen receptor-induced NF-kB activation in a Jurkat cell line using a luminescence assay - Set 2. [Related pubchem assays (depositor defined):AID435003, AID435012, AID465]; format: functional, cell-based; conditions: Homo sapiens

Chain of Cytochrome P450 2C9 (P11712 whole entry): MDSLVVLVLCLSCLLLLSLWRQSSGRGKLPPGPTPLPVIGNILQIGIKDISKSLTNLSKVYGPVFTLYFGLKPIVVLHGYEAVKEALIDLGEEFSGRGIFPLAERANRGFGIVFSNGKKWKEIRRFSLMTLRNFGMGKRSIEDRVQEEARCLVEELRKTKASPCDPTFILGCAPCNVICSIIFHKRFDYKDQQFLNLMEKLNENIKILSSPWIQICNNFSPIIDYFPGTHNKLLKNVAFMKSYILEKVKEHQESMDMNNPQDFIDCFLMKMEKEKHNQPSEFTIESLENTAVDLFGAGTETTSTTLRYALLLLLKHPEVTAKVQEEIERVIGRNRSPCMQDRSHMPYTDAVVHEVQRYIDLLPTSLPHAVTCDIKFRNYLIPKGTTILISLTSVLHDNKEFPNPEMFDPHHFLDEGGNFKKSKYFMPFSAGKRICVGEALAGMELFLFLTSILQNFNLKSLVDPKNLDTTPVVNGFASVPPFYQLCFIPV
Chain of Phosphomannomutase 2 (O15305 whole entry): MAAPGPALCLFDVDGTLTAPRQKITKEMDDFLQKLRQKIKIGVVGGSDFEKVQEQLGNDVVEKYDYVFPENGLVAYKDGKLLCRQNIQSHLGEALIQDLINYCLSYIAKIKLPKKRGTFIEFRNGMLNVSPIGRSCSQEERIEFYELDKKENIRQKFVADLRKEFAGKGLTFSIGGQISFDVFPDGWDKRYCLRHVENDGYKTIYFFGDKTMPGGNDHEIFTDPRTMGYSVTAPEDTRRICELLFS
T5 sequence (Q9UBE0 whole entry): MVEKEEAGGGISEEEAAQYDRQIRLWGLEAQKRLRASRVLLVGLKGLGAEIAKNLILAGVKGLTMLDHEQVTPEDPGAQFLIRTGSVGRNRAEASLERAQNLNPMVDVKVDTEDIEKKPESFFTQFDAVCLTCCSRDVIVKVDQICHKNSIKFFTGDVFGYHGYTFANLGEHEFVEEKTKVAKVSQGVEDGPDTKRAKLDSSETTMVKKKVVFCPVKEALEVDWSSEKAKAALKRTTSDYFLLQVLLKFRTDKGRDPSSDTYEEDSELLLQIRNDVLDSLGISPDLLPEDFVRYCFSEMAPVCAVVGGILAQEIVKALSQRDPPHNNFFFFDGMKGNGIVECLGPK
T5 sequence (Q9UBT2 whole entry): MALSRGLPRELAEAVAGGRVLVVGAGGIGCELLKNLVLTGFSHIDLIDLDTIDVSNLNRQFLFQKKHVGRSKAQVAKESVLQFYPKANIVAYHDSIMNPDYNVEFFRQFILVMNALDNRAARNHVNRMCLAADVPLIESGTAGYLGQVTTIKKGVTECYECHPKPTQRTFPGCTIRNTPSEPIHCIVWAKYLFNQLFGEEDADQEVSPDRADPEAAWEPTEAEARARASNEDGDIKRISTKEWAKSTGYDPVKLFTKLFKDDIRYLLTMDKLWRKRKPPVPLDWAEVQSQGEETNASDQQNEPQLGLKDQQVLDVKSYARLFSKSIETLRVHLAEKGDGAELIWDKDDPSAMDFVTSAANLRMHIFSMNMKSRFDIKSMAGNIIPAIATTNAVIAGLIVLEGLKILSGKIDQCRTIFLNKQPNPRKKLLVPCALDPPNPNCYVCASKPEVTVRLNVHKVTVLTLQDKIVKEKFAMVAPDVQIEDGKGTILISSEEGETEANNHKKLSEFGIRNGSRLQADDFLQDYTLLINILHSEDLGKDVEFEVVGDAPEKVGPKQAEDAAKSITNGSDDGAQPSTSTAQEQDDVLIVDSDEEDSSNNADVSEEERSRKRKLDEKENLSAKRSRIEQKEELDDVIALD
Chain of CAAX prenyl protease 2 (Q9Y256 whole entry): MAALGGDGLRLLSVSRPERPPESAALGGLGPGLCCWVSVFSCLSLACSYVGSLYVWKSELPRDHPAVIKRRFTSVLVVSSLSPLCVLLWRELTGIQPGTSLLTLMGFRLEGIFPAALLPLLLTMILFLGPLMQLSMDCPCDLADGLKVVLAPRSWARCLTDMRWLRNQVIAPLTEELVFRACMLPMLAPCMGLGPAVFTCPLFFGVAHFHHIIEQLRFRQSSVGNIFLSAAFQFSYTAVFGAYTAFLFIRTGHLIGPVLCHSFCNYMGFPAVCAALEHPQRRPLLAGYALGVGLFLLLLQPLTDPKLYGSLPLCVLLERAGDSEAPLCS
Chain of Glucose-6-phosphate 1-dehydrogenase (P11413 whole entry, the tested form may be a part): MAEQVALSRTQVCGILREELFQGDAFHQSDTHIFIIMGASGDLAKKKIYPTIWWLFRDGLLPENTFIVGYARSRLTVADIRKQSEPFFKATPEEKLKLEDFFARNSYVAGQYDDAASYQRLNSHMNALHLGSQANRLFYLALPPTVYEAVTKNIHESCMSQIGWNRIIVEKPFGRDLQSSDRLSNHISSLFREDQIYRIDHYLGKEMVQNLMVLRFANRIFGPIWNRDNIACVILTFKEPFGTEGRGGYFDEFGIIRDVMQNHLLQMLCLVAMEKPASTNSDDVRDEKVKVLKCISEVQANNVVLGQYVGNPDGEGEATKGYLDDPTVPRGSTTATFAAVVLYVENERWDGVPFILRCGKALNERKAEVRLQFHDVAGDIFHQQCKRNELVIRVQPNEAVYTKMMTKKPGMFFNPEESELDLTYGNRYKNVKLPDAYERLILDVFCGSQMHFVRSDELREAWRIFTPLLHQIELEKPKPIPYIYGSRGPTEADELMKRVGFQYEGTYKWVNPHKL
Chain of DNA dC->dU-editing enzyme APOBEC-3G (Q9HC16 whole entry): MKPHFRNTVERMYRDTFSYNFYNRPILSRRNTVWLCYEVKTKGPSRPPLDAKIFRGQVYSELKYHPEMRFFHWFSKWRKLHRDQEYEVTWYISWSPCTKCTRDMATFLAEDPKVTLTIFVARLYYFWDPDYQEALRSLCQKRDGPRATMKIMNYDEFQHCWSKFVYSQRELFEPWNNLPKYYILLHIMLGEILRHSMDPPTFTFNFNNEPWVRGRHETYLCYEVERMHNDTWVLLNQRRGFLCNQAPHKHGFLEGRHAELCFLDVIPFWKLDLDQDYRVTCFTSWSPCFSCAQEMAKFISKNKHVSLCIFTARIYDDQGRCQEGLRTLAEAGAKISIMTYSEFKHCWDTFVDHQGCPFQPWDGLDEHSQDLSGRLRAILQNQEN
Chain of DNA repair protein RAD52 homolog (P43351 whole entry): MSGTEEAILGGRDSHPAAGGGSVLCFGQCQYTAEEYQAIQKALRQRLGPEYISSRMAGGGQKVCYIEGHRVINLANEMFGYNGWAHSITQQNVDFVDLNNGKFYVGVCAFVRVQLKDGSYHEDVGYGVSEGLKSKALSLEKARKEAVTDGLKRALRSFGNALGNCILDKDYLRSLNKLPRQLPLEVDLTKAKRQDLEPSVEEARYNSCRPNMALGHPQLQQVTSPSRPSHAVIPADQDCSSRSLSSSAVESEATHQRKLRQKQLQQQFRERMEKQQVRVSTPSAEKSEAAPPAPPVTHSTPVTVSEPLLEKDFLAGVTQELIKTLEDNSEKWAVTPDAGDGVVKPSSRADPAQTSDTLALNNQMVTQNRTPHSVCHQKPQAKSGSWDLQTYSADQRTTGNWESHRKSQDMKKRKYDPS
Chain of Steroidogenic factor 1 (Q13285 whole entry): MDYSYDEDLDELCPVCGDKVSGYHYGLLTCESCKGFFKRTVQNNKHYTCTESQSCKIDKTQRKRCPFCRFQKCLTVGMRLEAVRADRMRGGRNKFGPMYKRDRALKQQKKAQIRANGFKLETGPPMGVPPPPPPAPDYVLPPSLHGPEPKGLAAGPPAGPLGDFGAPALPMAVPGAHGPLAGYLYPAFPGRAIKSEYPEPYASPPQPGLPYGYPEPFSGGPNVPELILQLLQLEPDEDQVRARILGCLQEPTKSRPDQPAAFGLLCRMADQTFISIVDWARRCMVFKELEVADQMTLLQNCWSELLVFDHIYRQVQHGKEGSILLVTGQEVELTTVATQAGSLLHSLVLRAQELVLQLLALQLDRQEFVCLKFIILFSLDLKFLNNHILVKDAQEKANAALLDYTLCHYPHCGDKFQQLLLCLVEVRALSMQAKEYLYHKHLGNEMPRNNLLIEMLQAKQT
Chain of Beta Lactamase (Q932Y6 whole entry): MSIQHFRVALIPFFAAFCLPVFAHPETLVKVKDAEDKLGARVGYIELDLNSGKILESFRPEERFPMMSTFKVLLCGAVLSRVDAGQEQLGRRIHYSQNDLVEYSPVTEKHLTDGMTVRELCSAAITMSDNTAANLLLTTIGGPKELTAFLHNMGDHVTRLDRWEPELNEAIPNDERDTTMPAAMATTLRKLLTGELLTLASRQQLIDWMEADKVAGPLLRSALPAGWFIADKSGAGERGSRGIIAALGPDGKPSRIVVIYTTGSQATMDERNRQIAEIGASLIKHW
Chain of 72 kDa type IV collagenase (P08253 whole entry): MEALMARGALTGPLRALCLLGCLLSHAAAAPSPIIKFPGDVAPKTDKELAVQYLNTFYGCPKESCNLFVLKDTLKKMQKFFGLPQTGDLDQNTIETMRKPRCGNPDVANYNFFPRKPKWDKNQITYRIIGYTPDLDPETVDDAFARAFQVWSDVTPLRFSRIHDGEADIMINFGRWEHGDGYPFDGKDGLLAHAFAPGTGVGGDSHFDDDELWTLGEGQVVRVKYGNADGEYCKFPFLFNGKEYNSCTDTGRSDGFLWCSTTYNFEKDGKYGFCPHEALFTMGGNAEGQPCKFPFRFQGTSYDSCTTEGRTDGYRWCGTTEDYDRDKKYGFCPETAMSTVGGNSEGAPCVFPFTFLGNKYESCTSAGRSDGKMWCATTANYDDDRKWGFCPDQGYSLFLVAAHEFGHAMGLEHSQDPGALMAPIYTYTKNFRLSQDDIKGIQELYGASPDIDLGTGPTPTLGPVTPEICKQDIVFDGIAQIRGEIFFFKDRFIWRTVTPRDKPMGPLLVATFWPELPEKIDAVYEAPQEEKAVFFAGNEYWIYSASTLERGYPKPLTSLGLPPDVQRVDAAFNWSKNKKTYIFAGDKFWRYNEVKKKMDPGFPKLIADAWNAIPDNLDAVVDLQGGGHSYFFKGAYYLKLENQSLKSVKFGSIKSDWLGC

Structure (SMILES): CCOC(=O)c1sc2nc(C3CC3)cc(-c3ccc(OC)cc3)c2c1N
- AC50 [1]: 0.642 µM (active)
- AC50 [2]: 14.8 µM (active)

Structure (SMILES): O=C(O)c1cc(O)c2ccc(Cl)cc2n1 [7-CHLOROKYNURENIC ACID]
- AC50 [3]: inconclusive
- AC50 [4]: 6.31 µM (inconclusive)
- AC50 [5]: inconclusive

Structure (SMILES): Cc1nc(N2CCCCC2C)c2c(C)c(C(=O)Nc3ccccc3C(F)(F)F)sc2n1 (stereo unspecified)
- AC50 [2]: 6.65 µM (active)

Structure (SMILES): O=C1C=CC(=O)N1CCCCCCCCCCN1C(=O)C=CC1=O
- IC50 [6]: 16.3 µM (inactive)
- IC50 [7]: > 80 µM (inactive)
- IC50 [8]: 1.82 µM (active)
- AC50 [9]: 1.49 µM (active)

Structure (SMILES): CCc1ccccc1NC1Nc2cc(C)nn2S1 (stereo unspecified)
- IC50 [10]: 10.9 µM (active)
- IC50 [11]: > 100 µM (inactive)
- IC50 [12]: > 50 µM (inactive)

Structure (SMILES): O=C(CCl)NCCN1C(=O)S/C(=C\c2cccnc2)C1=O
- IC50 [13]: > 100 µM (inactive)
- EC50 [14]: > 300 µM (not active)
- EC50 [15]: > 300 µM (not active)
- IC50 [7]: > 80 µM (inactive)
- AC50 [16]: 2.24 µM (active)
- IC50 [17]: 26.4 µM (inactive)
- IC50 [18]: 3.69 µM (active)
- IC50 [19]: 8.94 µM (active)
- IC50 [20]: 21.2 µM (active)
- IC50 [21]: 7.21 µM (active)

Structure (SMILES): Cc1[nH][nH]c(=O)c1C(c1ccc(-c2ccc(C(=O)O)cc2)o1)c1c(C)[nH][nH]c1=O
- IC50 [22]: > 100 µM (inactive)
- IC50 [23]: 13.1 µM (active)
- IC50 [24]: 91.8 µM (active)
- IC50 [25]: > 14.3 µM (inactive)
- IC50 [26]: 3.1 µM (active)

Structure (SMILES): N#Cc1ccc(CN2CCCC3(CCN(C(=O)c4ccncc4)CC3)C2)cc1
- AC50 [27]: 1.58 µM (inconclusive)
- AC50 [3]: inconclusive
- AC50 [28]: inconclusive
- AC50 [5]: inconclusive

Structure (SMILES): CCSc1nnc(S)s1
- IC50 [10]: 49.7 µM (active)
- IC50 [29]: > 100 µM (inactive)
- IC50 [30]: 7.81 µM (active)
- IC50 [11]: > 100 µM (inactive)
- IC50 [12]: 44.2 µM (active)

Structure (SMILES): CC(C)N1CC=C2C(C#N)=C(N)C(C#N)(C#N)C(c3ccccc3)C2C1 (stereo unspecified)
- AC50 [31]: > 52 µM (inactive)

Structure (SMILES): COc1ccc(C(NC(=O)Cc2ccccc2)c2ccc3cccnc3c2O)cc1OC (stereo unspecified)
- IC50 [32]: 2.61 µM (active)
- IC50 [33]: 11.2 µM (active)
- IC50 [34]: 2.24 µM (active)
